Measurements: US11357779B2 (G1 Therapeutics, Inc., priority 2018, dated 2022)
Where two headings read alike, the source gives them in different places.

Assay: Plasma concentration versus time of Compound I and metabolite Compound III in patients dosed QD or BID with Form B of Compound II plus fulvestrant
Assay type: in vivo, human
Settings: human, plasma, oral; for concentration at 0 h / concentration at 1 h / concentration at 2 h / concentration at 3 h / concentration at 4 h / concentration at 6 h / concentration at 8 h / concentration at 10 h / concentration at 12 h / concentration at 24 h: read-out: Compound I Concentration; for concentration at 8 day / concentration at 15 day / concentration at 22 day: Cohort 4, 500 mg QD of Form B; for concentration at 8 day: Day 8; for concentration at 15 day: Day 15; for concentration at 22 day: Day 22
Source text: Patients were enrolled into 1 of 2 parallel, independently operating, dose-escalation dosing cohorts with Form B of Compound II administered continuously either once daily (QD) or twice daily (BID) with food with fixed-dose fulvestrant (intramuscularly every 14 days for the first three injections and then every 28 days). Pre- or perimenopausal patients also received goserelin for the duration of study treatment. A […] agonist was started at least 28 days before the first dose of Form B, and those patients who were taking another LHRH agonist were switched to goserelin on Day 1. Patients were split into […] cohorts providing once a day (QD) dosing of 200 mg, 300 mg, 400 mg, 500 mg, or 650 mg of Form B, or twice a day (BID) dosing of 100 mg, 150 mg, or 200 mg of Form B. The second dose in BID cohorts was not administered in the evening until at least 12 hours after the initial morning dose of Form B. The dosing cohorts for Form B of Compound II are provided in Table 1.
Blood samples were collected at the following time points relative to the morning dose of Form B at Day 1 and at Day 29: pre-dose (0 hour) and 1, 2, 3, 4, 6, 8, 10, 12 (prior to the evening dose in the BID cohorts), and 24 (prior to the next day's morning dose) hours after dosing. A 5-minute time window was allowed for samples collected between the predose and 3 hours after Form B dosing. A 15-minute window was allowed for samples collected between 4 to 12 hours after Form B dosing. A 1-hour window was allowed for the sample collected 24 hours after Form B dosing. Blood samples for Compound I PK trough levels were collected pre-dose at Day 8, Day 15, and Day 22 prior to the morning administration of Compound I. Plasma concentrations of Compound I and its metabolite, Compound III, were measured using validated methods.
Analysis of plasma concentration versus time data for calculation of standard pharmacokinetic (PK) parameters following oral administration was conducted using Phoenix WinNonlin version 6.3 using actual blood sampling times.

[1] = 500 mg, read-out: Trough Compound I Concentration, Max
[2] = 500 mg, read-out: Trough Compound I Concentration, Median

## CC(C)N1CCN(c2ccc(Nc3ncc4cc5n(c4n3)C3(CCCCC3)CNC5=O)nc2)CC1 [Compound I, 2′-((5-(4-isopropylpiperazin-1-yl)pyridin-2-yl)amino)-7′,8′-dihydro-6′H-spiro[cyclohexane-1,9′-pyrazino[1′,2′:1,5]pyrrolo[2,3-d]pyrimidin]-6′-one]
500 mg, 500 mg QD of Form B, Day 1, 0.0 h, Median
  concentration at 0 h: 0 ng/mL
500 mg, 500 mg QD of Form B, Day 1, 1.0 h, Mean
  concentration at 1 h: 10.4 ng/mL
500 mg, 500 mg QD of Form B, Day 1, 1.0 h, Median
  concentration at 1 h: 10.2 ng/mL
500 mg, 500 mg QD of Form B, Day 1, 2.0 h, Mean
  concentration at 2 h: 18.5 ng/mL
500 mg, 500 mg QD of Form B, Day 1, 2.0 h, Median
  concentration at 2 h: 18.1 ng/mL
500 mg, 500 mg QD of Form B, Day 1, 3.0 h, Mean
  concentration at 3 h: 34.3 ng/mL
500 mg, 500 mg QD of Form B, Day 1, 3.0 h, Median
  concentration at 3 h: 27.4 ng/mL
500 mg, 500 mg QD of Form B, Day 1, 4.0 h, Mean
  concentration at 4 h: 35.4 ng/mL
500 mg, 500 mg QD of Form B, Day 1, 4.0 h, Median
  concentration at 4 h: 35.3 ng/mL
500 mg, 500 mg QD of Form B, Day 1, 6.0 h, Mean
  concentration at 6 h: 46.5 ng/mL
500 mg, 500 mg QD of Form B, Day 1, 6.0 h, Median
  concentration at 6 h: 45.6 ng/mL
500 mg, 500 mg QD of Form B, Day 1, 8.0 h, Mean
  concentration at 8 h: 40.6 ng/mL
500 mg, 500 mg QD of Form B, Day 1, 8.0 h, Median
  concentration at 8 h: 42.3 ng/mL
500 mg, 500 mg QD of Form B, Day 1, 10.0 h, Mean
  concentration at 10 h: 32.2 ng/mL
500 mg, 500 mg QD of Form B, Day 1, 10.0 h, Median
  concentration at 10 h: 33.4 ng/mL
500 mg, 500 mg QD of Form B, Day 1, 12.0 h, Mean
  concentration at 12 h: 27.8 ng/mL
500 mg, 500 mg QD of Form B, Day 1, 12.0 h, Median
  concentration at 12 h: 28.3 ng/mL
500 mg, 500 mg QD of Form B, Day 1, […], Mean
  concentration at 24 h: 8.93 ng/mL
500 mg, 500 mg QD of Form B, Day 1, […], Median
  concentration at 24 h: 7.17 ng/mL
500 mg, 500 mg QD of Form B, Day 29, 0.0 h, Mean
  concentration at 0 h: 14.4 ng/mL
500 mg, 500 mg QD of Form B, Day 29, 0.0 h, Median
  concentration at 0 h: 15.3 ng/mL
500 mg, 500 mg QD of Form B, Day 29, 1.0 h, Mean
  concentration at 1 h: 21.2 ng/mL
500 mg, 500 mg QD of Form B, Day 29, 1.0 h, Median
  concentration at 1 h: 17.6 ng/mL
500 mg, 500 mg QD of Form B, Day 29, 2.0 h, Mean
  concentration at 2 h: 34.2 ng/mL
500 mg, 500 mg QD of Form B, Day 29, 2.0 h, Median
  concentration at 2 h: 33.8 ng/mL
500 mg, 500 mg QD of Form B, Day 29, 3.0 h, Mean
  concentration at 3 h: 40.3 ng/mL
500 mg, 500 mg QD of Form B, Day 29, 3.0 h, Median
  concentration at 3 h: 41.4 ng/mL
500 mg, 500 mg QD of Form B, Day 29, 4.0 h, Mean
  concentration at 4 h: 41.8 ng/mL
500 mg, 500 mg QD of Form B, Day 29, 4.0 h, Median
  concentration at 4 h: 44.9 ng/mL
500 mg, 500 mg QD of Form B, Day 29, 6.0 h, Mean
  concentration at 6 h: 41.5 ng/mL
500 mg, 500 mg QD of Form B, Day 29, 6.0 h, Median
  concentration at 6 h: 43.2 ng/mL
500 mg, 500 mg QD of Form B, Day 29, 8.0 h, Mean
  concentration at 8 h: 34.1 ng/mL
500 mg, 500 mg QD of Form B, Day 29, 8.0 h, Median
  concentration at 8 h: 33.5 ng/mL
500 mg, 500 mg QD of Form B, Day 29, 10.0 h, Mean
  concentration at 10 h: 26.7 ng/mL
500 mg, 500 mg QD of Form B, Day 29, 10.0 h, Median
  concentration at 10 h: 25.6 ng/mL
500 mg, 500 mg QD of Form B, Day 29, 12.0 h, Mean
  concentration at 12 h: 24.4 ng/mL
500 mg, 500 mg QD of Form B, Day 29, 12.0 h, Median
  concentration at 12 h: 25.2 ng/mL
500 mg, 500 mg QD of Form B, Day 29, […], Mean
  concentration at 24 h: 12.5 ng/mL
500 mg, 500 mg QD of Form B, Day 29, […], Median
  concentration at 24 h: 13 ng/mL
[1]
  concentration at 8 day: 23.5 ng/mL
  concentration at 15 day: 32.8 ng/mL
  concentration at 22 day: 27.3 ng/mL
[2]
  concentration at 8 day: 17.2 ng/mL
  concentration at 15 day: 23.9 ng/mL
  concentration at 22 day: 17.7 ng/mL
650 mg, 650 mg QD of Form B, Day 1, 0.0 h, Mean
  concentration at 0 h: 0 ng/mL
650 mg, 650 mg QD of Form B, Day 1, 0.0 h, Median
  concentration at 0 h: 0 ng/mL
650 mg, 650 mg QD of Form B, Day 1, 1.0 h, Mean
  concentration at 1 h: 12.7 ng/mL
650 mg, 650 mg QD of Form B, Day 1, 1.0 h, Median
  concentration at 1 h: 9.68 ng/mL
650 mg, 650 mg QD of Form B, Day 1, 2.0 h, Mean
  concentration at 2 h: 24.8 ng/mL
650 mg, 650 mg QD of Form B, Day 1, 2.0 h, Median
  concentration at 2 h: 19.1 ng/mL
650 mg, 650 mg QD of Form B, Day 1, 3.0 h, Mean
  concentration at 3 h: 30.9 ng/mL
650 mg, 650 mg QD of Form B, Day 1, 3.0 h, Median
  concentration at 3 h: 31.6 ng/mL
650 mg, 650 mg QD of Form B, Day 1, 4.0 h, Mean
  concentration at 4 h: 43.7 ng/mL
650 mg, 650 mg QD of Form B, Day 1, 4.0 h, Median
  concentration at 4 h: 43.5 ng/mL
650 mg, 650 mg QD of Form B, Day 1, 6.0 h, Mean
  concentration at 6 h: 52.7 ng/mL
650 mg, 650 mg QD of Form B, Day 1, 6.0 h, Median
  concentration at 6 h: 49.8 ng/mL
650 mg, 650 mg QD of Form B, Day 1, 8.0 h, Mean
  concentration at 8 h: 59.6 ng/mL
